Earlier results as cited in US10647965B2, “Hetero-transglycosylase and uses thereof” (BASF SE, priority 2013, dated 2020).

System: XTHs (xyloglucan endotransglucosylases)
Settings: read-out: KM for XXXGol, comparison value, donor not stated

Km: 50 to 200 µM
Compound: OC[C@@H](O)[C@@H](O[C@@H]1O[C@H](CO[C@H]2OC[C@@H](O)[C@H](O)[C@H]2O)[C@@H](O[C@@H]2O[C@H](CO[C@H]3OC[C@@H](O)[C@H](O)[C@H]3O)[C@@H](O[C@@H]3O[C@H](CO[C@H]4OC[C@@H](O)[C@H](O)[C@H]4O)[C@@H](O)[C@H](O)[C@H]3O)[C@H](O)[C@H]2O)[C@H](O)[C@H]1O)[C@H](O)[C@@H](O)CO [XXXGol, Xyl3.Glc3.glucitol]
